Results as given in PubChem BioAssay AID256 (DTP/NCI, 2004).
Inconclusive results and toxic doses are left out. The calls were made as follows: active = survival T/C of 150% or more; inactive = T/C below 125% in these data.

System: CD2F1 mice, L1210 leukemia ip, survival T/C
Assay: NCI In Vivo Anticancer Drug Screen. Data for tumor model L1210 Leukemia (intraperitoneal) in CD2F1 (CDF1) mice
Settings: higher = longer survival
Protocol: The antitumor activity of compounds was measured in mice bearing transplantable tumors. Survival or tumor size were measured and the results are expressed as the measurement made in the treated group (T) divided by the measurement made in the vehicle treated control group (C). The tumor model used in this assay is L1210 Leukemia (intraperitoneal) in CD2F1 (CDF1) mice

[1] = endpoint: mean survival time, dose: 100.0 mg/kg/injection, schedule: Q01DX009 (ip), vehicle: saline with Tween-80
[2] = endpoint: mean survival time, dose: 200.0 mg/kg/injection, schedule: Q01DX009 (ip), vehicle: saline with Tween-80
[3] = endpoint: mean survival time, dose: 50.0 mg/kg/injection, schedule: Q01DX009 (ip), vehicle: saline with Tween-80
[4] = endpoint: mean survival time, dose: 100.0 mg/kg/injection, schedule: Q01DX001 (ip), vehicle: saline
[5] = endpoint: mean survival time, dose: 200.0 mg/kg/injection, schedule: Q01DX001 (ip), vehicle: saline
[6] = endpoint: mean survival time, dose: 400.0 mg/kg/injection, schedule: Q01DX001 (ip), vehicle: saline
[7] = endpoint: mean survival time, dose: 50.0 mg/kg/injection, schedule: Q04DX002 (ip), vehicle: saline with Tween-80
[8] = endpoint: mean survival time, dose: 100.0 mg/kg/injection, schedule: Q04DX002 (ip), vehicle: saline with Tween-80
[9] = endpoint: mean survival time, dose: 200.0 mg/kg/injection, schedule: Q04DX002 (ip), vehicle: saline with Tween-80
[10] = endpoint: mean survival time, dose: 50.0 mg/kg/injection, schedule: Q01DX009 (ip), vehicle: saline
[11] = endpoint: mean survival time, dose: 100.0 mg/kg/injection, schedule: Q01DX009 (ip), vehicle: saline
[12] = endpoint: mean survival time, dose: 200.0 mg/kg/injection, schedule: Q01DX009 (ip), vehicle: saline

Measured: T/C

N#C/C(=C/C=C/c1ccccc1)c1ccc([N+](=O)[O-])cc1
inactive: endpoint: mean survival time, dose: 100.0 mg/kg/injection, schedule: Q04DX002 (ip), vehicle: other 111 % of control | endpoint: mean survival time, dose: 200.0 mg/kg/injection, schedule: Q04DX002 (ip), vehicle: other 100 % of control | endpoint: mean survival time, dose: 400.0 mg/kg/injection, schedule: Q04DX002 (ip), vehicle: other 96 % of control

COc1ccc(C(=O)c2ccccc2NC(C)=O)cc1
inactive: [1] 98 % of control | [2] 101 % of control | endpoint: mean survival time, dose: 400.0 mg/kg/injection, schedule: Q01DX009 (ip), vehicle: saline with Tween-80 98 % of control

C/C(=N/O)c1cc(CN(C)C)oc1C
inactive: [3] 92 % of control | endpoint: mean survival time, dose: 100.0 mg/kg/injection, schedule: Q01DX001 (ip), vehicle: saline with Tween-80 113 % of control | [1] 90 % of control | endpoint: mean survival time, dose: 200.0 mg/kg/injection, schedule: Q01DX001 (ip), vehicle: saline with Tween-80 101 % of control | [2] 91 % of control

CNOCc1ccc(C(=O)NC(C)C)cc1
inactive: endpoint: mean survival time, dose: 25.0 mg/kg/injection, schedule: Q01DX009 (ip), vehicle: other 98 % of control | endpoint: mean survival time, dose: 50.0 mg/kg/injection, schedule: Q01DX009 (ip), vehicle: other 100 % of control | endpoint: mean survival time, dose: 100.0 mg/kg/injection, schedule: Q01DX009 (ip), vehicle: other 98 % of control | endpoint: mean survival time, dose: 200.0 mg/kg/injection, schedule: Q01DX009 (ip), vehicle: other 100 % of control | endpoint: mean survival time, dose: 400.0 mg/kg/injection, schedule: Q01DX009 (ip), vehicle: other 118 % of control

Cc1ccc(NC(=O)c2ccc(C(=O)Nc3ccc(C)c(Cl)c3)cc2)cc1Cl
inactive: [4] 89 % of control | [5] 98 % of control | [6] 89 % of control

CN(C)N=Nc1ccc(N=Nc2ccc(N(CCO)CCO)cc2)cc1
inactive: [4] 102 % of control | [5] 93 % of control | [6] 101 % of control

C=C1C(=C)C2C=CC1C1C3C(c4ccccn4)=NN=C(c4ccccn4)C3C21 (stereo not drawn)
inactive: endpoint: mean survival time, dose: 25.0 mg/kg/injection, schedule: Q04DX002 (ip), vehicle: saline with Tween-80 95 % of control | [7] 98 % of control | [8] 98 % of control | [9] 88 % of control | endpoint: mean survival time, dose: 400.0 mg/kg/injection, schedule: Q04DX002 (ip), vehicle: saline with Tween-80 103 % of control

CCOCCNCc1ccc(Cl)c(Cl)c1
inactive: endpoint: mean survival time, dose: 100.0 mg/kg/injection, schedule: Q04DX003 (ip), vehicle: saline with Tween-80 93 % of control | endpoint: mean survival time, dose: 200.0 mg/kg/injection, schedule: Q04DX003 (ip), vehicle: saline with Tween-80 94 % of control

O=C(O)Cn1nnc2ccccc21
inactive: endpoint: mean survival time, dose: 25.0 mg/kg/injection, schedule: Q01DX009 (ip), vehicle: saline with Tween-80 100 % of control | endpoint: mean survival time, dose: 25.0 mg/kg/injection, schedule: Q01DX009 (ip), vehicle: saline 102 % of control | [3] 97 % of control | [10] 102 % of control | [1] 97 % of control | [11] 98 % of control | [2] 100 % of control | [12] 100 % of control

c1ccc2c[n+](C[n+]3ccc4ccccc4c3)ccc2c1
inactive: [10] 96 % of control | [11] 102 % of control | [12] 102 % of control

Cc1nc2cc3ccccc3cc2n1C1OC(CO)C(O)C1O (stereo not drawn)
inactive: endpoint: median survival time, dose: 26.5 mg/kg/injection, schedule: Q01DX005 (ip), vehicle: saline with Tween-80 92 % of control | endpoint: median survival time, dose: 53.0 mg/kg/injection, schedule: Q01DX005 (ip), vehicle: saline with Tween-80 103 % of control | endpoint: median survival time, dose: 106.0 mg/kg/injection, schedule: Q01DX005 (ip), vehicle: saline with Tween-80 93 % of control | endpoint: median survival time, dose: 212.0 mg/kg/injection, schedule: Q01DX005 (ip), vehicle: saline with Tween-80 88 % of control

CC(=O)Oc1ccc(/C=N/NC(N)=S)nc1
active: endpoint: mean survival time, dose: 37.5 mg/kg/injection, schedule: Q01DX009 (ip), vehicle: saline with Tween-80 160 % of control | endpoint: mean survival time, dose: 75.0 mg/kg/injection, schedule: Q01DX009 (ip), vehicle: saline with Tween-80 152 % of control | endpoint: mean survival time, dose: 150.0 mg/kg/injection, schedule: Q01DX009 (ip), vehicle: saline with Tween-80 165 % of control

Cc1ccc(/C(=N\Nc2ccc([N+](=O)[O-])cc2[N+](=O)[O-])C2CC2c2ccccc2)cc1 (stereo not drawn)
inactive: [7] 91 % of control | [8] 105 % of control | [9] 91 % of control

O=CC(O)C(Cl)C(Cl)C(O)CCl (stereo not drawn)
inactive: endpoint: mean survival time, dose: 100.0 mg/kg/injection, schedule: Q04DX003 (ip), vehicle: saline 115 % of control | endpoint: mean survival time, dose: 200.0 mg/kg/injection, schedule: Q04DX003 (ip), vehicle: saline 100 % of control | endpoint: mean survival time, dose: 400.0 mg/kg/injection, schedule: Q04DX003 (ip), vehicle: saline 98 % of control
